From US5190741A, “Agents for diagnosing and treating melanomas, aromatic halogenated derivatives usable as such agents and their preparation” (Institut National de la Sante et de la Recherche Medicale …, priority 1989, dated 1993)
Like-named read-outs stand apart in the source and are kept apart here.

Assay: Tissue distribution in Swiss nu/nu SSCUP mice bearing Beu
Assay type: in vivo, human
Conditions: mouse, iv, 3 umol/animal
Method: The study of the tissue distribution of the ^125 I labelled compounds was performed in mice bearing grafted melanomas (cf. autoradiograms above). […] The animals are sacrificed at different time intervals of 1 to 24 hours after the injection. The blood is collected and the principal organs are excised. Aliquots are weighed and the radioactivity of the samples is measured in a […] 1191 counter (analytic tracer). The counting yield for iodine 125 is 60%. The results are expressed: as a percentage of the injected dose bound per g of tissue (% ID/g); in the form of the ratios [formula] This ratio reflects more precisely the selectivity of a molecule for an organ (tables 2, 4, 6, 8, 10 and 12).

[1] = intestine, read-out: intestine % ID/g
[2] = kidney, read-out: kidney % ID/g
[3] = muscle, read-out: muscle % ID/g
[4] = pancreas, read-out: pancreas % ID/g
[5] = plasma, read-out: plasma % ID/g
[6] = spleen, read-out: spleen % ID/g
[7] = stomach, read-out: stomach % ID/g
[8] = submaxillary glands, read-out: submaxillary glands % ID/g

**Q.** Which tissue uptake at 1 h (blood, read-out: blood % ID/g) does the source give for CCN(CC)CCNC(=O)c1ccc(I)cc1 [Derivative A, N-(2-diethylaminoethyl) 4-iodo benzamide] here?
**A.** 0.87 %ID/g

**Q.** And the tissue uptake at 2 h (blood, read-out: blood % ID/g)?
**A.** 0.53 %ID/g

**Q.** And the tissue uptake at 4 h (blood, read-out: blood % ID/g)?
**A.** 0.32 %ID/g

**Q.** What about the tissue uptake at 6 h (blood, read-out: blood % ID/g) of the same compound?
**A.** 0.13 %ID/g

**Q.** And the tissue uptake at 24 h (blood, read-out: blood % ID/g)?
**A.** 0.01 %ID/g

**Q.** What about the tissue uptake at 8 h (blood, 8 h, read-out: blood % ID/g) of the same compound?
**A.** 0.05 %ID/g

**Q.** And the tissue uptake at 12 h (blood, read-out: blood % ID/g)?
**A.** 0.02 %ID/g

**Q.** And the tissue uptake at 1 h (brain, read-out: brain % ID/g)?
**A.** 1.66 %ID/g

**Q.** And the tissue uptake at 2 h (brain, read-out: brain % ID/g)?
**A.** 1.13 %ID/g

**Q.** And the tissue uptake at 4 h (brain, read-out: brain % ID/g)?
**A.** 0.78 %ID/g

**Q.** And the tissue uptake at 6 h (brain, read-out: brain % ID/g)?
**A.** 0.28 %ID/g

**Q.** And the tissue uptake at 24 h (brain, read-out: brain % ID/g)?
**A.** 0.006 %ID/g

**Q.** What about the tissue uptake at 8 h (brain, 8 h, read-out: brain % ID/g) of the same compound?
**A.** 0.13 %ID/g

**Q.** And the tissue uptake at 12 h (brain, read-out: brain % ID/g)?
**A.** 0.01 %ID/g

**Q.** What about the tissue uptake at 1 h (eye, read-out: eye % ID/g) of the same compound?
**A.** 0.64 %ID/g

**Q.** And the tissue uptake at 2 h (eye, read-out: eye % ID/g)?
**A.** 0.56 %ID/g

**Q.** What about the tissue uptake at 4 h (eye, read-out: eye % ID/g) of the same compound?
**A.** 0.34 %ID/g

**Q.** And the tissue uptake at 6 h (eye, read-out: eye % ID/g)?
**A.** 0.13 %ID/g

**Q.** What about the tissue uptake at 24 h (eye, read-out: eye % ID/g) of the same compound?
**A.** 0.03 %ID/g

**Q.** And the tissue uptake at 8 h (eye, 8 h, read-out: eye % ID/g)?
**A.** 0.07 %ID/g

**Q.** And the tissue uptake at 12 h (eye, read-out: eye % ID/g)?
**A.** 0.03 %ID/g

**Q.** What about the tissue uptake at 1 h [1] of the same compound?
**A.** 3.76 %ID/g

**Q.** And the tissue uptake at 2 h [1]?
**A.** 2.35 %ID/g

**Q.** What about the tissue uptake at 4 h [1] of the same compound?
**A.** 1.56 %ID/g

**Q.** What about the tissue uptake at 6 h [1] of the same compound?
**A.** 0.52 %ID/g

**Q.** What about the tissue uptake at 8 h (intestine, 8 h, read-out: intestine % ID/g) of the same compound?
**A.** 0.15 %ID/g

**Q.** And the tissue uptake at 12 h [1]?
**A.** 0.08 %ID/g

**Q.** And the tissue uptake at 24 h [1]?
**A.** 0.03 %ID/g

**Q.** And the tissue uptake at 1 h [2]?
**A.** 7.63 %ID/g

**Q.** What about the tissue uptake at 2 h [2] of the same compound?
**A.** 5.9 %ID/g

**Q.** What about the tissue uptake at 4 h [2] of the same compound?
**A.** 4.28 %ID/g

**Q.** What about the tissue uptake at 6 h [2] of the same compound?
**A.** 0.99 %ID/g

**Q.** What about the tissue uptake at 24 h [2] of the same compound?
**A.** 0.06 %ID/g

**Q.** And the tissue uptake at 8 h (kidney, 8 h, read-out: kidney % ID/g)?
**A.** 0.28 %ID/g

**Q.** And the tissue uptake at 12 h [2]?
**A.** 0.1 %ID/g

**Q.** And the tissue uptake at 1 h (liver, read-out: liver % ID/g)?
**A.** 5.27 %ID/g

**Q.** What about the tissue uptake at 2 h (liver, read-out: liver % ID/g) of the same compound?
**A.** 3.5 %ID/g

**Q.** And the tissue uptake at 4 h (liver, read-out: liver % ID/g)?
**A.** 2.28 %ID/g

**Q.** What about the tissue uptake at 6 h (liver, read-out: liver % ID/g) of the same compound?
**A.** 0.94 %ID/g

**Q.** And the tissue uptake at 24 h (liver, read-out: liver % ID/g)?
**A.** 0.13 %ID/g

**Q.** And the tissue uptake at 8 h (liver, 8 h, read-out: liver % ID/g)?
**A.** 0.52 %ID/g

**Q.** What about the tissue uptake at 12 h (liver, read-out: liver % ID/g) of the same compound?
**A.** 0.28 %ID/g

**Q.** And the tissue uptake at 1 h (lungs, read-out: lungs % ID/g)?
**A.** 7.77 %ID/g

**Q.** What about the tissue uptake at 2 h (lungs, read-out: lungs % ID/g) of the same compound?
**A.** 4.71 %ID/g

**Q.** What about the tissue uptake at 4 h (lungs, read-out: lungs % ID/g) of the same compound?
**A.** 3.6 %ID/g

**Q.** What about the tissue uptake at 6 h (lungs, read-out: lungs % ID/g) of the same compound?
**A.** 1.25 %ID/g

**Q.** And the tissue uptake at 8 h (lungs, 8 h, read-out: lungs % ID/g)?
**A.** 0.35 %ID/g

**Q.** And the tissue uptake at 12 h (lungs, read-out: lungs % ID/g)?
**A.** 0.08 %ID/g

**Q.** And the tissue uptake at 24 h (lungs, read-out: lungs % ID/g)?
**A.** 0.05 %ID/g

**Q.** What about the tissue uptake at 1 h [3] of the same compound?
**A.** 1.3 %ID/g

**Q.** What about the tissue uptake at 2 h [3] of the same compound?
**A.** 0.93 %ID/g

**Q.** And the tissue uptake at 4 h [3]?
**A.** 0.51 %ID/g

**Q.** What about the tissue uptake at 6 h [3] of the same compound?
**A.** 0.33 %ID/g

**Q.** What about the tissue uptake at 24 h [3] of the same compound?
**A.** 0.01 %ID/g

**Q.** What about the tissue uptake at 8 h (muscle, 8 h, read-out: muscle % ID/g) of the same compound?
**A.** 0.08 %ID/g

**Q.** What about the tissue uptake at 12 h [3] of the same compound?
**A.** 0.01 %ID/g

**Q.** And the tissue uptake at 1 h [4]?
**A.** 3.99 %ID/g

**Q.** And the tissue uptake at 2 h [4]?
**A.** 2.28 %ID/g

**Q.** What about the tissue uptake at 4 h [4] of the same compound?
**A.** 1.39 %ID/g

**Q.** What about the tissue uptake at 6 h [4] of the same compound?
**A.** 0.36 %ID/g

**Q.** What about the tissue uptake at 8 h (pancreas, 8 h, read-out: pancreas % ID/g) of the same compound?
**A.** 0.12 %ID/g

**Q.** And the tissue uptake at 12 h [4]?
**A.** 0.06 %ID/g

**Q.** And the tissue uptake at 24 h [4]?
**A.** 0.05 %ID/g

**Q.** And the tissue uptake at 1 h [5]?
**A.** 0.46 %ID/g

**Q.** What about the tissue uptake at 2 h [5] of the same compound?
**A.** 0.35 %ID/g

**Q.** And the tissue uptake at 4 h [5]?
**A.** 0.2 %ID/g

**Q.** And the tissue uptake at 6 h [5]?
**A.** 0.12 %ID/g

**Q.** And the tissue uptake at 24 h [5]?
**A.** 0.01 %ID/g

**Q.** What about the tissue uptake at 8 h (plasma, 8 h, read-out: plasma % ID/g) of the same compound?
**A.** 0.04 %ID/g

**Q.** And the tissue uptake at 12 h [5]?
**A.** 0.02 %ID/g

**Q.** What about the tissue uptake at 1 h [6] of the same compound?
**A.** 4.11 %ID/g

**Q.** And the tissue uptake at 2 h [6]?
**A.** 2.12 %ID/g

**Q.** What about the tissue uptake at 4 h [6] of the same compound?
**A.** 1.07 %ID/g

**Q.** And the tissue uptake at 6 h [6]?
**A.** 0.28 %ID/g

**Q.** What about the tissue uptake at 8 h (spleen, 8 h, read-out: spleen % ID/g) of the same compound?
**A.** 0.11 %ID/g

**Q.** What about the tissue uptake at 12 h [6] of the same compound?
**A.** 0.04 %ID/g

**Q.** What about the tissue uptake at 24 h [6] of the same compound?
**A.** 0.02 %ID/g

**Q.** And the tissue uptake at 1 h [7]?
**A.** 2.49 %ID/g

**Q.** What about the tissue uptake at 2 h [7] of the same compound?
**A.** 1.51 %ID/g

**Q.** And the tissue uptake at 4 h [7]?
**A.** 1.16 %ID/g

**Q.** And the tissue uptake at 6 h [7]?
**A.** 0.49 %ID/g

**Q.** What about the tissue uptake at 8 h (stomach, 8 h, read-out: stomach % ID/g) of the same compound?
**A.** 0.22 %ID/g

**Q.** And the tissue uptake at 12 h [7]?
**A.** 0.07 %ID/g

**Q.** What about the tissue uptake at 24 h [7] of the same compound?
**A.** 0.04 %ID/g

**Q.** What about the tissue uptake at 1 h [8] of the same compound?
**A.** 5.11 %ID/g

**Q.** And the tissue uptake at 2 h [8]?
**A.** 2.9 %ID/g

**Q.** And the tissue uptake at 4 h [8]?
**A.** 1.71 %ID/g

**Q.** And the tissue uptake at 6 h [8]?
**A.** 0.95 %ID/g

**Q.** What about the tissue uptake at 8 h (submaxillary glands, 8 h, read-out: submaxillary glands % ID/g) of the same compound?
**A.** 0.24 %ID/g

**Q.** What about the tissue uptake at 12 h [8] of the same compound?
**A.** 0.04 %ID/g

**Q.** What about the tissue uptake at 24 h [8] of the same compound?
**A.** 0.03 %ID/g

**Q.** What about the tissue uptake at 1 h (tumor, read-out: tumor % ID/g) of the same compound?
**A.** 3.51 %ID/g

**Q.** What about the tissue uptake at 2 h (tumor, read-out: tumor % ID/g) of the same compound?
**A.** 3.17 %ID/g

**Q.** And the tissue uptake at 4 h (tumor, read-out: tumor % ID/g)?
**A.** 3.25 %ID/g

**Q.** And the tissue uptake at 6 h (tumor, read-out: tumor % ID/g)?
**A.** 1.96 %ID/g

**Q.** What about the tissue uptake at 24 h (tumor, read-out: tumor % ID/g) of the same compound?
**A.** 0.07 %ID/g

**Q.** And the tissue uptake at 8 h (tumor, up to 8 hours, Beu, read-out: intratumoral concentration)?
**A.** > 1 %ID/g

**Q.** What about the tissue uptake at 8 h (tumor, 8 h, read-out: tumor % ID/g) of the same compound?
**A.** 1.07 %ID/g

**Q.** What about the tissue uptake at 12 h (tumor, read-out: tumor % ID/g) of the same compound?
**A.** 0.36 %ID/g
